In publication PMC10060639, “Prediction and bioactivity of small-molecule antimicrobial peptides from Protaetia brevitarsis Lewis larvae” (Frontiers in Microbiology, 2023):
Ends that are not written are not given here.

What was measured:
E. coli [1] = assay: agar punch method, inhibition circle; assay type: cell-based, Escherichia coli; conditions: 6 mm hole, 55 μL of 1 mg/mL, NA, 37°C, 16–18 h, mean ± SD, three replicates, + control given per plate group
Protocol: (§1) Staphylococcus aureus CMCC(B) 26003, B. thuringiensis, E. coli, and P. aeruginosa CMCC(B)10104 were cultured in NA medium and C. albicans CMCC(F) 98001 was cultured in SDA medium. They were incubated in a constant-temperature (bacteria: 37°C; fungi: 28°C) incubator for 16–20 h. Thereafter, single colonies were picked and incubated in 50 mL MHB at 160 rpm/min at the optimal growth temperature (bacteria: 37°C; fungi: 28°C). Microbial suspensions of 1 × 10^6 CFU/mL were then prepared ([Chen et al., 2016]).
(§2) 100 μL of 1 × 10^6 CFU/mL microbial suspension (E. coli, P. aeruginosa CMCC(B)10104, B. thuringiensis, S. aureus CMCC(B) 26003, or C. albicans CMCC(F) 98001) was evenly applied to dishes containing 20 mL NA (bacteria) or SDA (fungi). After the microbial solution solidified, six holes per dish were punched with a sterile pipette tip of 6 mm in diameter, with each hole spaced >20 mm apart and > 10 mm apart from the edge of the dish. […] Next, 55 μL of 1 mg/mL control/treatment was added to each hole and incubated in a constant-temperature (bacteria: 37°C; fungi: 28°C) incubator for 16–18 h ([Chen et al., 2016]; [Gong et al., 2022]), with three replicates for each treatment group. The diameter of the inhibition circle was measured using ImageJ software (National Institutes of Health, United States) in order to preliminarily determine whether the candidate peptides had inhibitory activity.

[2] = system: P. aeruginosa CMCC(B)10104; assay: agar punch method, inhibition circle; assay type: cell-based, Pseudomonas aeruginosa; conditions: 6 mm hole, 55 μL of 1 mg/mL, NA, 37°C, 16–18 h, mean ± SD, three replicates, + control given per plate group
Protocol: as §1, §2

B. thuringiensis [3] = assay: agar punch method, inhibition circle; assay type: cell-based, Bacillus thuringiensis; conditions: 6 mm hole, 55 μL of 1 mg/mL, NA, 37°C (Fig. S3C: 30°C), 16–18 h, mean ± SD, three replicates, + control given per plate group
Protocol: as §1, §2

S. aureus CMCC(B) 26003 [4] = assay: agar punch method, inhibition circle; assay type: cell-based, Staphylococcus aureus; conditions: 6 mm hole, 55 μL of 1 mg/mL, NA, 37°C, 16–18 h, mean ± SD, three replicates, + control given per plate group
Protocol: as §1, §2

[5] = system: C. albicans CMCC(F) 98001; assay: agar punch method, inhibition circle; assay type: cell-based, Candida albicans; conditions: 6 mm hole, 55 μL of 1 mg/mL, SDA, 28°C, 16–18 h, mean ± SD, three replicates, + control given per plate group
Protocol: as §1, §2

E. coli [6] = assay type: cell-based, Escherichia coli
Protocol: as §1
(§3) The MIC values of five candidate peptides (FD4, FD10, FD12, FD14, and FD15), which were selected based on physicochemical properties and antimicrobial effects (determined by the agar punch method), were evaluated using a micro-broth dilution method ([Zhou and Zhou, 2018]). Serial two-fold dilutions of the candidate peptides were prepared in 96-well plates containing the same microbial inoculum (E. coli, P. aeruginosa CMCC(B)10104, B. thuringiensis, S. aureus CMCC(B) 26003, or C. albicans CMCC(F) 98001). The plates were incubated (bacteria: 37°C; fungi: 28°C) for 16–18 h. Ampicillin was used as the positive control. The MIC was defined as the lowest peptide concentration where no visible growth occurred ([Diao et al., 2014]). The experiment was conducted in triplicate.

[7] = system: P. aeruginosa CMCC(B)10104; assay type: cell-based, Pseudomonas aeruginosa; conditions: CMCC(B)10104
Protocol: as §1, §3

B. thuringiensis [8] = assay type: cell-based, Bacillus thuringiensis
Protocol: as §1, §3

S. aureus CMCC(B) 26003 [9] = assay type: cell-based, Staphylococcus aureus; conditions: CMCC(B) 26003
Protocol: as §1, §3

E. coli [10] = assay type: cell-based, Escherichia coli; remark: listed apart in the source
Protocol: (§4) E. coli and S. aureus CMCC(B) 26003 (1 × 10^6 CFU/mL) were incubated in MHB with various final physiological concentrations of serum salts (150 mM NaCl, 4.5 mM KCl, 1 mM MgCl2, and […]). 50 μL of these E. coli or S. aureus CMCC(B) 26003 suspensions and 50 μL of AMP (serially diluted two-fold to a final concentration of 256 μg/mL) were added to a 96-well plate and incubated at 37°C for 16–18 h ([Chou et al., 2016]). The MIC values were then determined. The experiment was conducted in triplicate.

S. aureus CMCC(B) 26003 [11] = assay type: cell-based, Staphylococcus aureus; conditions: CMCC(B) 26003; remark: listed apart in the source
Protocol: as §4

[12] = system: C. albicans CMCC(F) 98001; assay type: cell-based, Candida albicans; conditions: CMCC(F) 98001
Protocol: as §1, §3

AFQRTIRKFL [FD5]
Inhibition circle diameter (mm) E. coli (E. coli [1]): 0 mm
Inhibition circle diameter (mm) P. aeruginosa CMCC(B)10104 [2]: 0 mm
Inhibition circle diameter (mm) B. thuringiensis (B. thuringiensis [3]): 0 mm
Inhibition circle diameter (mm) S. aureus CMCC(B) 26003 (S. aureus CMCC(B) 26003 [4]): 0 mm
Inhibition circle diameter (mm) C. albicans CMCC(F) 98001 [5]: 0 mm

ANWDKVIR [FD13]
Inhibition circle diameter (mm) E. coli (E. coli [1]): 0 mm
Inhibition circle diameter (mm) P. aeruginosa CMCC(B)10104 [2]: 0 mm
Inhibition circle diameter (mm) B. thuringiensis (B. thuringiensis [3]): 0 mm
Inhibition circle diameter (mm) S. aureus CMCC(B) 26003 (S. aureus CMCC(B) 26003 [4]): 0 mm
Inhibition circle diameter (mm) C. albicans CMCC(F) 98001 [5]: 0 mm

ANWKKVIR [FD14]
MIC (μg/mL) E. coli (E. coli [6]): 256 µg/mL
MIC (μg/mL) P. aeruginosa CMCC(B)10104 [7]: 256 µg/mL
MIC (μg/mL) B. thuringiensis (B. thuringiensis [8]): 256 µg/mL

FPVGRVHRLL [FD11]
Inhibition circle diameter (mm) E. coli (E. coli [1]): 0 mm
Inhibition circle diameter (mm) P. aeruginosa CMCC(B)10104 [2]: 0 mm
Inhibition circle diameter (mm) B. thuringiensis (B. thuringiensis [3]): 0 mm
Inhibition circle diameter (mm) S. aureus CMCC(B) 26003 (S. aureus CMCC(B) 26003 [4]): 0 mm
Inhibition circle diameter (mm) C. albicans CMCC(F) 98001 [5]: 0 mm

IRAWVAWRNR [FD3]
Inhibition circle diameter (mm) E. coli (E. coli [1]): 0 mm
Inhibition circle diameter (mm) P. aeruginosa CMCC(B)10104 [2]: 0 mm
Inhibition circle diameter (mm) B. thuringiensis (B. thuringiensis [3]): 0 mm
Inhibition circle diameter (mm) S. aureus CMCC(B) 26003 (S. aureus CMCC(B) 26003 [4]): 0 mm
Inhibition circle diameter (mm) C. albicans CMCC(F) 98001 [5]: 0 mm

IVHLLTKMTK [FD4]
MIC (μg/mL) S. aureus CMCC(B) 26003 (S. aureus CMCC(B) 26003 [9]): 256 µg/mL

KIYVLLRRQA [FD12]
MIC (μg/mL) E. coli (E. coli [6]): 32 µg/mL
MIC (μg/mL) B. thuringiensis (B. thuringiensis [8]): 128 µg/mL
MIC (μg/mL) S. aureus CMCC(B) 26003 (S. aureus CMCC(B) 26003 [9]): 16 µg/mL
MIC, Control (E. coli [10]): 32 µg/mL
MIC, FeCl3 (E. coli [10]): 32 µg/mL
MIC, KCl (E. coli [10]): 16 µg/mL
MIC, MgCl2 (E. coli [10]): 64 µg/mL
MIC, NaCl (E. coli [10]): 64 µg/mL
MIC, Control (S. aureus CMCC(B) 26003 [11]): 16 µg/mL
MIC, FeCl3 (S. aureus CMCC(B) 26003 [11]): 32 µg/mL
MIC, KCl (S. aureus CMCC(B) 26003 [11]): 8 µg/mL
MIC, MgCl2 (S. aureus CMCC(B) 26003 [11]): 32 µg/mL
MIC, NaCl (S. aureus CMCC(B) 26003 [11]): 32 µg/mL

KLLVPRCR [FD6]
Inhibition circle diameter (mm) E. coli (E. coli [1]): 0 mm
Inhibition circle diameter (mm) P. aeruginosa CMCC(B)10104 [2]: 0 mm
Inhibition circle diameter (mm) B. thuringiensis (B. thuringiensis [3]): 0 mm
Inhibition circle diameter (mm) S. aureus CMCC(B) 26003 (S. aureus CMCC(B) 26003 [4]): 0 mm
Inhibition circle diameter (mm) C. albicans CMCC(F) 98001 [5]: 0 mm

LARTLKRLGM [FD2]
Inhibition circle diameter (mm) E. coli (E. coli [1]): 0 mm
Inhibition circle diameter (mm) P. aeruginosa CMCC(B)10104 [2]: 0 mm
Inhibition circle diameter (mm) B. thuringiensis (B. thuringiensis [3]): 0 mm
Inhibition circle diameter (mm) S. aureus CMCC(B) 26003 (S. aureus CMCC(B) 26003 [4]): 0 mm
Inhibition circle diameter (mm) C. albicans CMCC(F) 98001 [5]: 0 mm

LVTRAAFHGKKV [FD8]
Inhibition circle diameter (mm) E. coli (E. coli [1]): 0 mm
Inhibition circle diameter (mm) P. aeruginosa CMCC(B)10104 [2]: 0 mm
Inhibition circle diameter (mm) B. thuringiensis (B. thuringiensis [3]): 0 mm
Inhibition circle diameter (mm) S. aureus CMCC(B) 26003 (S. aureus CMCC(B) 26003 [4]): 0 mm
Inhibition circle diameter (mm) C. albicans CMCC(F) 98001 [5]: 0 mm

RIGRLVTRAAF [FD7]
Inhibition circle diameter (mm) E. coli (E. coli [1]): 0 mm
Inhibition circle diameter (mm) P. aeruginosa CMCC(B)10104 [2]: 0 mm
Inhibition circle diameter (mm) B. thuringiensis (B. thuringiensis [3]): 0 mm
Inhibition circle diameter (mm) S. aureus CMCC(B) 26003 (S. aureus CMCC(B) 26003 [4]): 0 mm
Inhibition circle diameter (mm) C. albicans CMCC(F) 98001 [5]: 0 mm

SLARAGKVR [FD9]
Inhibition circle diameter (mm) E. coli (E. coli [1]): 0 mm
Inhibition circle diameter (mm) P. aeruginosa CMCC(B)10104 [2]: 0 mm
Inhibition circle diameter (mm) B. thuringiensis (B. thuringiensis [3]): 0 mm
Inhibition circle diameter (mm) S. aureus CMCC(B) 26003 (S. aureus CMCC(B) 26003 [4]): 0 mm
Inhibition circle diameter (mm) C. albicans CMCC(F) 98001 [5]: 0 mm

STLHLVLRLR [FD16]
Inhibition circle diameter (mm) E. coli (E. coli [1]): 0 mm
Inhibition circle diameter (mm) P. aeruginosa CMCC(B)10104 [2]: 0 mm
Inhibition circle diameter (mm) B. thuringiensis (B. thuringiensis [3]): 0 mm
Inhibition circle diameter (mm) S. aureus CMCC(B) 26003 (S. aureus CMCC(B) 26003 [4]): 0 mm
Inhibition circle diameter (mm) C. albicans CMCC(F) 98001 [5]: 0 mm

VACAKRVVR [FD1]
Inhibition circle diameter (mm) E. coli (E. coli [1]): 0 mm
Inhibition circle diameter (mm) P. aeruginosa CMCC(B)10104 [2]: 0 mm
Inhibition circle diameter (mm) B. thuringiensis (B. thuringiensis [3]): 0 mm
Inhibition circle diameter (mm) S. aureus CMCC(B) 26003 (S. aureus CMCC(B) 26003 [4]): 0 mm
Inhibition circle diameter (mm) C. albicans CMCC(F) 98001 [5]: 0 mm

VFRLKKWIQKVI [FD10]
MIC (μg/mL) E. coli (E. coli [6]): 8 µg/mL
MIC (μg/mL) P. aeruginosa CMCC(B)10104 [7]: 8 µg/mL
MIC (μg/mL) B. thuringiensis (B. thuringiensis [8]): 8 µg/mL
MIC (μg/mL) S. aureus CMCC(B) 26003 (S. aureus CMCC(B) 26003 [9]): 16 µg/mL
MIC (μg/mL) C. albicans CMCC(F) 98001 [12]: 16 µg/mL
MIC, Control (E. coli [10]): 8 µg/mL
MIC, FeCl3 (E. coli [10]): 4 µg/mL
MIC, KCl (E. coli [10]): 4 µg/mL
MIC, MgCl2 (E. coli [10]): 16 µg/mL
MIC, NaCl (E. coli [10]): 16 µg/mL
MIC, Control (S. aureus CMCC(B) 26003 [11]): 16 µg/mL
MIC, FeCl3 (S. aureus CMCC(B) 26003 [11]): 16 µg/mL
MIC, KCl (S. aureus CMCC(B) 26003 [11]): 8 µg/mL
MIC, MgCl2 (S. aureus CMCC(B) 26003 [11]): 32 µg/mL
MIC, NaCl (S. aureus CMCC(B) 26003 [11]): 32 µg/mL
